In US7135466B2 (Kirin Beer Kabushiki Kaisha, priority 1999, dated 2006) one finds IC50 and inhibition data, which are given here for 32 compounds.

pIC50: −log10 of the molar value.

One assay concerns the target T1, c-kit (Homo sapiens, UniProt P10721).
T1 construct: MO7e (human megakaryocytic leukemia cell line) which had been arrested for 20 hr; endogenous in cells; host or cells: MO7e human megakaryocytic leukemia cell line
The assay can be described thus: Inhibitory activity against c-kit autophosphorylation (MO7e cells, h-SCF). The settings on record: MO7e cells, h-SCF 50 ng/ml; read-out: c-kit IC50. Format: cell-based. In short, it runs like this:
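MO7e cells, arrested for 20 hr, were pretreated with test compound in DMSO for 1 hr and then stimulated with 50 ng/ml h-SCF for 5 min before lysis. Lysates were captured on immobilized anti-phosphotyrosine PY-20, probed with anti-c-kit antibody and HRP anti-rabbit IgG, and read colorimetrically at 450 nm.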

Another assay deals with T2, PDGF-Ra (Homo sapiens, UniProt P16234).
T2 construct: host or cells: G-292 human osteosarcoma cells
In words: Inhibitory activity against PDGF-Ra phosphorylation by PDGF-AA stimulation using G292. The assay is classed as cell-based. The settings on record: for pIC50: Pharmacological Test Example 1, > means inhibition at indicated concentration not more than 50%, < and << not less than 50%, read-out: PDGF (E) IC50; for inhibition at 0.1 µM: G292, figure in parentheses in >100( ), at 100 nM, read-out: PDGF (E) inhibition (%) at 100 nM. Summed up: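 Human osteosarcoma G-292, 0.1% FBS o/n; cpd (DMSO) 1 h 37 °C; PDGF-AA 50 ng/ml 5 min; lyse 20 min RT; PY-20 capture 4 °C o/n; anti-PDGF-Ra + HRP-GAR; OD450.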

T2 sequence (P16234 24-1089): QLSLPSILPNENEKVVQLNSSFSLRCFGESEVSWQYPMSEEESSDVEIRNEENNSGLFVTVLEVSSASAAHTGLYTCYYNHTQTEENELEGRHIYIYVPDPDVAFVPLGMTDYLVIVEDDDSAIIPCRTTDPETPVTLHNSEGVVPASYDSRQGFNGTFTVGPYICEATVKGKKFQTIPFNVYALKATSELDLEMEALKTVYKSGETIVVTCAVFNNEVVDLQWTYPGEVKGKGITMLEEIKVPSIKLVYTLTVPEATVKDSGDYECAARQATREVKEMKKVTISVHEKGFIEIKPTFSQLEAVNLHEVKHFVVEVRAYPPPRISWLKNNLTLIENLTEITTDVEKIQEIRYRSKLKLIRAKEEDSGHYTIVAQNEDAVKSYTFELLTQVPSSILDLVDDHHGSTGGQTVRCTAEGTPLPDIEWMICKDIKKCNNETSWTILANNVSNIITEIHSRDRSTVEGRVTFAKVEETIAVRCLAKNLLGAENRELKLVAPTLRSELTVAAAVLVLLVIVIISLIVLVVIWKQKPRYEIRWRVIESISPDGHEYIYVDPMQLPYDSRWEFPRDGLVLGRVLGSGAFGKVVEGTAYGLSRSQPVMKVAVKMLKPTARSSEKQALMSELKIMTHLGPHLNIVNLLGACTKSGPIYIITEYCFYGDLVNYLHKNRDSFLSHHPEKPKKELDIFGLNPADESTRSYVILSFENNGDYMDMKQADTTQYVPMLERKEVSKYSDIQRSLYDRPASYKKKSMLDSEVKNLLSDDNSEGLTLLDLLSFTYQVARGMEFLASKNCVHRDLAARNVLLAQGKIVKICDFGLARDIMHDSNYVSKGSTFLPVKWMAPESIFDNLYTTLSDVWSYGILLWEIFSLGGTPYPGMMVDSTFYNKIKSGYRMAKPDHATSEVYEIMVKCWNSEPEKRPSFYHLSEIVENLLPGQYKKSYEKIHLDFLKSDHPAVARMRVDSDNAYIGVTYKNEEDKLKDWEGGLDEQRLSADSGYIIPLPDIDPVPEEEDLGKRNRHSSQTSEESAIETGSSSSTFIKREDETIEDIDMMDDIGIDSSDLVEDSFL
T1 sequence (P10721 26-976): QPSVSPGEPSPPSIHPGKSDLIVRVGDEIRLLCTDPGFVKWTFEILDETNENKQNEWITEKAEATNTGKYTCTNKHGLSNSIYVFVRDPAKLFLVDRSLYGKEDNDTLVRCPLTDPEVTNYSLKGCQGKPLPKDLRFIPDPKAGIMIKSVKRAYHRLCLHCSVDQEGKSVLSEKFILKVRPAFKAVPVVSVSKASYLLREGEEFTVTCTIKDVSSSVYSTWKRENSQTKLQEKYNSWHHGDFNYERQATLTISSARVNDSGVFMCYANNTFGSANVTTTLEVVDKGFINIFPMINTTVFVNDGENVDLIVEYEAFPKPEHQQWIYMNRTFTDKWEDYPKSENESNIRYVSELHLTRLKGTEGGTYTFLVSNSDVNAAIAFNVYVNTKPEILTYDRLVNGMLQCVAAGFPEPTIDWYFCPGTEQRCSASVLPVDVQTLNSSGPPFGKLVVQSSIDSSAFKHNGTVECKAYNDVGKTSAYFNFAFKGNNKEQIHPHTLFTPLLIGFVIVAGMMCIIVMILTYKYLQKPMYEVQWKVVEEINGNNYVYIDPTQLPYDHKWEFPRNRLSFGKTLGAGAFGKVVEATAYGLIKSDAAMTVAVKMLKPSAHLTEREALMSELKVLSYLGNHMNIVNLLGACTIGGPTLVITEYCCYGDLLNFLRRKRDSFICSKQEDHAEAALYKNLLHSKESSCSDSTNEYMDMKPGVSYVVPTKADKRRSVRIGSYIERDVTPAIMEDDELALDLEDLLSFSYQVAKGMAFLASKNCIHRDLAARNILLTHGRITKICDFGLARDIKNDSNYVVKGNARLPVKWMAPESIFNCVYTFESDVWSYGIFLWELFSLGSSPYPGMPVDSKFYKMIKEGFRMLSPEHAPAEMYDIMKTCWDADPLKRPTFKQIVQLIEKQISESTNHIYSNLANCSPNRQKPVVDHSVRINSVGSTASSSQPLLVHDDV

The pIC50 is the negative decadic logarithm of the IC50, by convention in mol/L. On to `COc1cc2nccc(Oc3ccc(NC(=O)OCc4ccccc4)cc3)c2cc1OC` [Example 231, Benzyl N-{4-[(6,7-dimethoxy-4-quinolyl)oxy]phenyl}carbamate], for which the pIC50 was 7.07 on c-kit and 9.00 at PDGF-Ra.

In the case of `COc1cc2nccc(Oc3ccc(NC(=O)OCc4ccccc4C)c(C)c3C)c2cc1OC` [Example 232, 2-Methylbenzyl N-{4-[(6,7-dimethoxy-4-quinolyl)oxy]-2,3-dimethylphenyl}carbamate], the pIC50 is 7.38 at c-kit and 7.96 on PDGF-Ra.

Turning to `COc1cc2nccc(Oc3ccc(NC(=O)OCc4cccc(C)c4)c(C)c3C)c2cc1OC` [Example 233, 3-Methylbenzyl N-{4-[(6,7-dimethoxy-4-quinolyl)oxy]-2,3-dimethylphenyl}carbamate], the figures for the negative logarithm of the IC50 (pIC50) at c-kit and on PDGF-Ra were 7.28 and 8.10, respectively.

As for `COc1cc2nccc(Oc3ccc(NC(=O)OCc4ccc(C)cc4)c(C)c3C)c2cc1OC` [Example 234, 4-Methylbenzyl N-{4-[(6,7-dimethoxy-4-quinolyl)oxy]-2,3-dimethylphenyl}carbamate], the values for the pIC50 at c-kit and at PDGF-Ra were 7.34 and 8.00, respectively.

Turning to `COc1cc2nccc(Oc3ccc(NC(=O)OCc4ccccc4Cl)c(C)c3C)c2cc1OC` [Example 235, 2-Chlorobenzyl N-{4-[(6,7-dimethoxy-4-quinolyl)oxy]-2,3-dimethylphenyl}carbamate], the figures for the negative-log IC50 (pIC50) at c-kit and at PDGF-Ra were 7.24 and greater than 8.52, respectively.

For the compound `COc1cc2nccc(Oc3ccc(NC(=O)OCc4cccc(Cl)c4)c(C)c3C)c2cc1OC` [Example 236, 3-Chlorobenzyl N-{4-[(6,7-dimethoxy-4-quinolyl)oxy]-2,3-dimethylphenyl}carbamate], the results for the pIC50 at c-kit and on PDGF-Ra were 7.33 and 8.40, respectively.

Take `COc1cc2nccc(Oc3ccc(NC(=O)OCc4ccc(Cl)cc4)c(C)c3C)c2cc1OC` [Example 237, 4-Chlorobenzyl N-{4-[(6,7-dimethoxy-4-quinolyl)oxy]-2,3-dimethylphenyl}carbamate]: the pIC50 on c-kit was 7.38; on PDGF-Ra it was 8.22.

Regarding `COc1cccc(COC(=O)Nc2ccc(Oc3ccnc4cc(OC)c(OC)cc34)c(C)c2C)c1` [Example 238, 3-Methoxybenzyl N-{4-[(6,7-dimethoxy-4-quinolyl)oxy]-2,3-dimethylphenyl}carbamate], the figures for the negative logarithm of the IC50 (pIC50) at c-kit and on PDGF-Ra were 7.44 and 8.00, respectively.

`COc1ccccc1COC(=O)Nc1cc(C)c(Oc2ccnc3cc(OC)c(OC)cc23)cc1C` [Example 239, 2-Methoxybenzyl N-{4-[(6,7-dimethoxy-4-quinolyl)oxy]-2,5-dimethylphenyl}carbamate]: the results for the pIC50 on c-kit and at PDGF-Ra were 6.74 and 8.05, respectively.

For the compound `COc1cccc(COC(=O)Nc2cc(C)c(Oc3ccnc4cc(OC)c(OC)cc34)cc2C)c1` [Example 240, 3-Methoxybenzyl N-{4-[(6,7-dimethoxy-4-quinolyl)oxy]-2,5-dimethylphenyl}carbamate], the negative logarithm of the IC50 (pIC50) was 6.61 on c-kit and 7.77 on PDGF-Ra.

As for `COc1cc2nccc(Oc3cc(C)c(NC(=O)OCc4ccccc4Cl)cc3C)c2cc1OC` [Example 241, 2-Chlorobenzyl N-{4-[(6,7-dimethoxy-4-quinolyl)oxy]-2,5-dimethylphenyl}carbamate], the pIC50 at c-kit is 6.63; at PDGF-Ra, 7.92.

`COc1cc2nccc(Oc3cc(C)c(NC(=O)OCc4cccc(Cl)c4)cc3C)c2cc1OC` [Example 242, 3-Chlorobenzyl N-{4-[(6,7-dimethoxy-4-quinolyl)oxy]-2,5-dimethylphenyl}carbamate]: the pIC50 at c-kit was 6.72; at PDGF-Ra it was 7.68.

As for `COc1cc2nccc(Oc3cc(C)c(NC(=O)OCc4ccc(Cl)cc4)cc3C)c2cc1OC` [Example 243, 4-Chlorobenzyl N-{4-[(6,7-dimethoxy-4-quinolyl)oxy]-2,5-dimethylphenyl}carbamate], the pIC50 on c-kit is 6.72; at PDGF-Ra, 7.70.

For `CCCOC(=O)Nc1cc(C)c(Oc2ccnc3cc(OC)c(OC)cc23)cc1C` [Example 244, Propyl N-{4-[(6,7-dimethoxy-4-quinolyl)oxy]-2,5-dimethylphenyl}carbamate], the figures for the pIC50 at c-kit and on PDGF-Ra were 7.16 and 7.57, respectively.

On to `COc1cc2nccc(Oc3cc(C)c(NC(=O)OCc4ccccc4C)cc3C)c2cc1OC` [Example 245, 2-Methylbenzyl N-{4-[(6,7-dimethoxy-4-quinolyl)oxy]-2,5-dimethylphenyl}carbamate], for which the figures for the negative-log IC50 (pIC50) on c-kit and at PDGF-Ra were 6.39 and 7.80, respectively.

In the case of `COc1cc2nccc(Oc3cc(C)c(NC(=O)OCc4ccc5ccccc5c4)cc3C)c2cc1OC` [Example 246, 2-Naphthylmethyl N-{4-[(6,7-dimethoxy-4-quinolyl)oxy]-2,5-dimethylphenyl}carbamate], the negative-log IC50 (pIC50) at c-kit is 6.61; at PDGF-Ra, 7.24.

As for `CCCOC(=O)Nc1ccc(Oc2ccnc3cc(OC)c(OC)cc23)cc1` [Example 247, Propyl N-{4-[(6,7-dimethoxy-4-quinolyl)oxy]phenyl}carbamate], the negative-log IC50 (pIC50) was 7.40 on c-kit and 8.52 at PDGF-Ra.

`COc1ccccc1COC(=O)Nc1ccc(Oc2ccnc3cc(OC)c(OC)cc23)cc1` [Example 248, 2-Methoxybenzyl N-{4-[(6,7-dimethoxy-4-quinolyl)oxy]phenyl}carbamate]: the figures for the pIC50 on c-kit and at PDGF-Ra were 6.83 and 7.96, respectively.

Turning to `COc1ccc(COC(=O)Nc2ccc(Oc3ccnc4cc(OC)c(OC)cc34)cc2)cc1` [Example 249, 4-Methoxybenzyl N-{4-[(6,7-dimethoxy-4-quinolyl)oxy]phenyl}carbamate], the pIC50 is 7.24 on c-kit and 8.40 at PDGF-Ra.

For the compound `COc1cc2nccc(Oc3ccc(NC(=O)OCc4ccccc4C)cc3)c2cc1OC` [Example 250, 2-Methylbenzyl N-{4-[(6,7-dimethoxy-4-quinolyl)oxy]phenyl}carbamate], the pIC50 on c-kit was 6.74; on PDGF-Ra, 8.40.

For `COc1cc2nccc(Oc3ccc(NC(=O)OCc4cccc(C)c4)cc3)c2cc1OC` [Example 251, 3-Methylbenzyl N-{4-[(6,7-dimethoxy-4-quinolyl)oxy]phenyl}carbamate], the pIC50 at c-kit was 6.73; at PDGF-Ra it was 8.22.

Consider `COc1cc2nccc(Oc3ccc(NC(=O)OCc4ccc(C)cc4)cc3)c2cc1OC` [Example 252, 4-Methylbenzyl N-{4-[(6,7-dimethoxy-4-quinolyl)oxy]phenyl}carbamate], for which the figures for the pIC50 at c-kit and on PDGF-Ra were 6.95 and 8.22, respectively.

`COc1cc2nccc(Oc3cc(C)c(NC(=O)OCc4ccccc4C)cc3C)c2cc1OC` [Example 253, 2-Methylbenzyl N-{4-[(6,7-dimethoxy-4-quinolyl)oxy]-2,5-dimethylphenyl}carbamate]: the values for the pIC50 at c-kit and at PDGF-Ra were 6.29 and 7.77, respectively.

Broadly, the inhibition is the percentage by which the read-out fell short of the control. For the compound `COc1cc2nccc(Oc3cc(C)c(NC(=O)OCc4cccc(C)c4)cc3C)c2cc1OC` [Example 254, 3-Methylbenzyl N-{4-[(6,7-dimethoxy-4-quinolyl)oxy]-2,5-dimethylphenyl}carbamate], on c-kit, the pIC50 is 6.40. On PDGF-Ra, the inhibition at 0.1 µM was 27% and the pIC50 was less than 7.00.

Consider `COc1cc2nccc(Oc3cc(C)c(NC(=O)OCc4ccc(C)cc4)cc3C)c2cc1OC` [Example 255, 4-Methylbenzyl N-{4-[(6,7-dimethoxy-4-quinolyl)oxy]-2,5-dimethylphenyl}carbamate], for which, at c-kit, the pIC50 is 6.51. At PDGF-Ra, the inhibition at 0.1 µM is 36% and the pIC50 was less than 7.00.

For `CCCCCCOC(=O)Nc1ccc(Oc2ccnc3cc(OC)c(OC)cc23)cc1` [Example 256, Hexyl N-{4-[(6,7-dimethoxy-4-quinolyl)oxy]phenyl}carbamate], the pIC50 on c-kit was 7.82; on PDGF-Ra, greater than 8.52.

Turning to `CCCCc1ccc(OC(=O)Nc2ccc(Oc3ccnc4cc(OC)c(OC)cc34)cc2)cc1` [Example 257, 4-Butylphenyl N-{4-[(6,7-dimethoxy-4-quinolyl)oxy]phenyl}carbamate], the figures for the pIC50 at c-kit and on PDGF-Ra were 7.66 and 8.22, respectively.

Turning to `CCCC(CC)OC(=O)Nc1ccc(Oc2ccnc3cc(OC)c(OC)cc23)cc1` (stereo not drawn) [Example 258, 1-Ethylbutyl N-{4-[(6,7-dimethoxy-4-quinolyl)oxy]phenyl}carbamate], the negative-log IC50 (pIC50) is 6.75 on c-kit and 8.52 on PDGF-Ra.

`COc1cc2nccc(Oc3ccc(NC(=O)Oc4ccc(C(C)(C)C)cc4)cc3)c2cc1OC` [Example 259, 4-(Tert-butyl)phenyl N-{4-[(6,7-dimethoxy-4-quinolyl)oxy]phenyl}carbamate]: the pIC50 at c-kit is 6.74; on PDGF-Ra, 7.47.

Consider `COc1cc2nccc(Oc3ccc(NC(=O)Oc4ccccc4OC)cc3)c2cc1OC` [Example 260, 2-Methoxyphenyl N-{4-[(6,7-dimethoxy-4-quinolyl)oxy]phenyl}carbamate], for which the pIC50 at c-kit was 6.74; on PDGF-Ra, 8.22.

For `CCCCCCOC(=O)Nc1ccc(Oc2ccnc3cc(OC)c(OC)cc23)c(C)c1C` [Example 261, Hexyl N-{4-[(6,7-Dimethoxy-4-quinolyl)oxy]-2,3-dimethylphenyl}carbamate], the values for the pIC50 at c-kit and at PDGF-Ra were 7.36 and 8.40, respectively.

Turning to `CCCCCCOC(=O)Nc1cc(C)c(Oc2ccnc3cc(OC)c(OC)cc23)cc1C` [Example 262, Hexyl N-{4-[(6,7-dimethoxy-4-quinolyl)oxy]-2,5-dimethylphenyl}carbamate], the pIC50 at c-kit is 7.08; on PDGF-Ra, 8.15.
